One assay concerns the target RIPK1 (Homo sapiens (Human), UniProt Q13546). The assay is described as follows: ADP-Glo kinase assay (RIPK1 activity, conversion of ATP to ADP). The assay is classed as biochemical. The settings on record: 5 nM RIPK1, 50 μM ATP, 6 h reaction; read-out: RIPK1 Enzyme Avg IC50. The essentials: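 RIPK1 (5 nM final) was preincubated 10 min at rt with 1:3-diluted compounds in HEPES pH 7.5/MgCl2/DTT/BSA/CHAPS buffer. ATP (50 μM final) was then added for 6 h, and ADP formed was read by ADP-Glo luminescence. IC50 values came from four-parameter logistic fitting.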

Assay [1] has as its system human monocytic cell line U937. The assay is described as follows: Human U937 cellular necroptosis assay (TNFalpha + z-VAD-FMK, Cell Titer-Glo viability). The assay is classed as cell-based. The settings on record: U937 cells, 25 ng/mL human TNFalpha + 25 μM z-VAD-FMK, read-out: hU937 Avg IC50. Put shortly: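 Readout is CellTiter-Glo 2.0 luminescence after 22 h at 37° C with compound, in cells triggered by human TNFalpha (25 ng/mL) and z-VAD-FMK (25 μM) in phenol red-free RPMI/10% FBS. Values are run-averaged IC50s from a four-parameter logistic curve.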
On the technique in general: Cellular ATP, detected with luciferase, serves as a proxy for viable cell number.

Like-named read-outs stand apart in the source and are kept apart here.

RIPK1, sequence (Q13546 1-327): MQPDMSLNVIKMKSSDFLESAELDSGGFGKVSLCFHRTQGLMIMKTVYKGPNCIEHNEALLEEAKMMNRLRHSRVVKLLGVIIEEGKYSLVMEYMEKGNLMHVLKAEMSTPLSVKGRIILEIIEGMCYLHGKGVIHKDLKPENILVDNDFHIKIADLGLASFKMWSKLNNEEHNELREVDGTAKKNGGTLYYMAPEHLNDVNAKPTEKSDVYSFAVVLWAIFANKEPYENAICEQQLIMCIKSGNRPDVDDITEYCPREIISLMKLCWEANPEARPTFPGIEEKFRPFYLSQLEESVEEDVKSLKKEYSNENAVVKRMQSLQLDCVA

For the compound `N#Cc1cnc2c(ccn2CC23CC(C(=O)N4N=CCC4c4cc(F)cc(F)c4)(C2)C3)c1` (centres unmarked) [Example 212, 1-((3-(5-(3,5-difluorophenyl)-4,5-dihydro-1H-pyrazole-1-carbonyl)bicyclo[1.1.1]pentan-1-yl)methyl)-1H-pyrrolo[2,3-b]pyridine-5-carbonitrile], the IC50 (in general, the concentration at which inhibition is half-maximal) is 0.011 µM on RIPK1 and 0.019 µM in assay [1] (Homo sapiens, U-937, 22 h).

With `O=C(N1N=CCC1c1cc(F)cc(F)c1)C12CC(Cn3ncc4cccnc43)(C1)C2` (centres unmarked) [Example 89, (3-((1H-pyrazolo[3,4-b]-pyridin-1-yl)methyl)bicyclo-[1.1.1]pentan-1-yl)(5-(3,5-difluorophenyl)-4,5-dihydro-1H-pyrazol-1-yl)methanone], the IC50 was 0.025 µM on RIPK1 and 0.137 µM in assay [1] (Homo sapiens, U-937, 22 h).

Turning to `N#Cc1cnc2cnn(CC34CC(C(=O)N5N=CCC5c5cc(F)cc(F)c5)(C3)C4)c2c1` (centres unmarked) [Example 218, 1-((3-(5-(3,5-difluorophenyl)-4,5-dihydro-1H-pyrazole-1-carbonyl)bicyclo[1.1.1]pentan-1-yl)methyl)-1H-pyrazolo[4,3-b]pyridine-6-carbonitrile], the IC50 came out at 0.025 µM at RIPK1 and 0.113 µM in assay [1] (Homo sapiens, U-937, 22 h).

Turning to `Cc1ccc(C2CC=NN2C(=O)C23CC(Cn4cc(C#N)cn4)(C2)C3)nc1` (centres unmarked) [Example 171, 1-((3-(5-(5-methylpyridin-2-yl)-4,5-dihydro-1H-pyrazole-1-carbonyl)bicyclo[1.1.1]-pentan-1-yl)methyl)-1H-pyrazole-4-carbonitiile], the IC50 was 0.67 µM on RIPK1 and 3.7 µM in assay [1] (Homo sapiens, U-937, 22 h).

With `Cc1cnc(C2CC=NN2C(=O)C23CC(Cn4cc(C#N)cn4)(C2)C3)cn1` (centres unmarked) [Example 131, 1-((3-(5-(5-methylpyrazin-2-yl)-4,5-dihydro-1H-pyrazole-1-carbonyl)bicyclo[1.1.1]-pentan-1-yl)methyl)-1H-pyrazole-4-carbonitrile], the IC50 worked out at 0.375 µM on RIPK1 and 1.93 µM in assay [1] (Homo sapiens, U-937, 22 h).

For the compound `N#Cc1ccc2c(cnn2CC23CC(C(=O)N4CCC4c4ccccc4F)(C2)C3)c1` (centres unmarked) [Example 248, 1-((3-(2-(2-fluorophenyl)-azetidine-1-carbonyl)bicyclo-[1.1.1]pentan-1-yl)methyl)-1H-indazole-5-carbonitrile], the IC50 was determined as 0.023 µM at RIPK1 and 0.186 µM in assay [1] (Homo sapiens, U-937, 22 h).

In the case of `NC(=O)c1cn(CC23CC(C(=O)N4N=CCC4c4cc(F)cc(F)c4)(C2)C3)nn1` (centres unmarked) [Example 54, 1-((3-(5-(3,5-difluorophenyl)-4,5-dihydro-1H-pyrazole-1-carbonyl)-bicyclo[1.1.1]pentan-1-yl)methyl)-1H-1,2,3-triazole-4-carboxamide], the IC50 on RIPK1 was determined as 0.409 µM; in assay [1] (Homo sapiens, U-937, 22 h), 2.64 µM.

Consider `COc1ccc2cnn(CC34CC(C(=O)N5N=CCC5c5cc(F)cc(F)c5)(C3)C4)c2c1` (centres unmarked) [Example 73, (5-(3,5-difluorophenyl)-4,5-dihydro-1H-pyrazol-1-yl)(3-((6-methoxy-1H-indazol-1-yl)methyl)bicyclo[1.1.1]-pentan-1-yl)methanone], for which the IC50 on RIPK1 came to 0.111 µM; in assay [1] (Homo sapiens, U-937, 22 h) it was 0.527 µM.

With `O=C(N1N=CCC1c1cc(F)cc(F)c1)C12CC(Cn3ccc4ncc(F)cc43)(C1)C2` (centres unmarked) [Example 134, (5-(3,5-difluorophenyl)-4,5-dihydro-1H-pyrazol-1-yl)(3-((6-fluoro-1H-pyrrolo[3,2-b]-pyridin-1-yl)methyl)-bicyclo[1.1.1]pentan-1-yl)methanone], the IC50 turned out to be 0.024 µM on RIPK1 and 0.046 µM in assay [1] (Homo sapiens, U-937, 22 h).

As to `N#Cc1cccc(C2CC=NN2C(=O)C23CC(Cn4ncc5cc(C#N)ccc54)(C2)C3)c1` (centres unmarked) [Example 175, 1-((3-(5-(3-cyanophenyl)-4,5-dihydro-1H-pyrazole-1-carbonyl)bicyclo[1.1.1]-pentan-1-yl)methyl)-1H-indazole-5-carbonitrile], the IC50 came out at 0.016 µM on RIPK1 and 0.047 µM in assay [1] (Homo sapiens, U-937, 22 h).

Regarding `N#Cc1ccc2c(cnn2CC23CC(C(=O)N4N=CCC4c4cnccn4)(C2)C3)c1` (centres unmarked) [Example 51, 1-((3-(5-(pyrazin-2-yl)-4,5-dihydro-1H-pyrazole-1-carbonyl)bicyclo[1.1.1]pentan-1-yl)methyl)-1H-indazole-5-carbonitrile], the IC50 at RIPK1 was determined as 0.022 µM; in assay [1] (Homo sapiens, U-937, 22 h), 0.04 µM.

Consider `N#Cc1cccc2cn(CC34CC(C(=O)N5N=CCC5c5cc(F)cc(F)c5)(C3)C4)nc12` (centres unmarked) [Example 142, 2-((3-(5-(3,5-difluorophenyl)-4,5-dihydro-1H-pyrazole-1-carbonyl)bicyclo[1.1.1]pentan-1-yl)methyl)-2H-indazole-7-carbonitrile], for which the IC50 stood at 0.079 µM at RIPK1 and 0.75 µM in assay [1] (Homo sapiens, U-937, 22 h).

As to `N#Cc1cccc2nn(CC34CC(C(=O)N5N=CCC5c5cc(F)cc(F)c5)(C3)C4)cc12` (centres unmarked) [Example 60, 2-((3-(5-(3,5-difluorophenyl)-4,5-dihydro-1H-pyrazole-1-carbonyl)bicyclo[1.1.1]-pentan-1-yl)methyl)-2H-indazole-4-carbonitrile], the IC50 is 0.044 µM at RIPK1 and 0.178 µM in assay [1] (Homo sapiens, U-937, 22 h).

In the case of `O=C(N1N=CCC1c1cc(F)cc(F)c1)C12CC(Cn3cnc4ncccc43)(C1)C2` (centres unmarked) [Example 193, (3-((1H-imidazo[4,5-b]-pyridin-1-yl)methyl)-bicyclo[1.1.1]pentan-1-yl)(5-(3,5-difluorophenyl)-4,5-dihydro-1H-pyrazol-1-yl)methanone and (3-((3H-imidazol[4,5-b]pyridin-3-yl)methyl)-bicyclo[1.1.1]pentan-1-yl)(5-(3,5-difluorophenyl)-4,5-dihydro-1H-pyrazol-1-yl)methanone], the results for the IC50 (on RIPK1; in assay [1] (22 h)) were 0.292 µM and 1.39 µM, respectively.

Consider `O=C(N1N=CCC1c1cc(F)cc(F)c1)C12CC(Cn3cc4cccc(Cl)c4n3)(C1)C2` (centres unmarked) [Example 58, (3-((7-chloro-2H-indazol-2-yl)methyl)bicyclo[1.1.1]-pentan-1-yl)(5-(3,5-difluoro-phenyl)-4,5-dihydro-1H-pyrazol-1-yl)methanone], for which the IC50 came out at 0.034 µM at RIPK1 and 0.16 µM in assay [1] (Homo sapiens, U-937, 22 h).

For the compound `N#Cc1cnn(CC23CC(C(=O)N4N=CCC4c4ccccc4)(C2)C3)c1` (centres unmarked) [Example 138, 1-((3-(5-phenyl-4,5-dihydro-1H-pyrazole-1-carbonyl)-bicyclo[1.1.1]pentan-1-yl)methyl)-1H-pyrazole-4-carbonitrile], the IC50 stood at 0.113 µM at RIPK1 and 0.417 µM in assay [1] (Homo sapiens, U-937, 22 h).

For `COc1ccn(CC23CC(C(=O)N4N=CCC4c4cc(F)cc(F)c4)(C2)C3)n1` (centres unmarked) [Example 164, (5-(3,5-difluorophenyl)-4,5-dihydro-1H-pyrazol-1-yl)(3-((3-methoxy-1H-pyrazol-1-yl)methyl)bicyclo[1.1.1]-pentan-1-yl)methanone], the IC50 at RIPK1 was 0.057 µM; in assay [1] (Homo sapiens, U-937, 22 h), 0.214 µM.

As for `O=C(N1N=CCC1c1cc(F)cc(F)c1)C12CC(CCl)(C1)C2` (centres unmarked) [Example 11, (3-(Chloromethyl)bicyclo[1.1.1]pentan-1-yl)(5-(3,5-difluorophenyl)-4,5-dihydro-1H-pyrazol-1-yl)methanone], the IC50 on RIPK1 stood at 0.02 µM; in assay [1] (Homo sapiens, U-937, 22 h) it was 0.018 µM.

As for `O=C(N1N=CCC1c1cc(F)cc(F)c1)C12CC(Cn3nc(Cl)c4ccccc43)(C1)C2` (centres unmarked) [Example 141, (3-((3-chloro-1H-indazol-1-yl)methyl)bicyclo[1.1.1]-pentan-1-yl)(5-(3,5-difluorophenyl)-4,5-dihydro-1H-pyrazol-1-yl)methanone], the IC50 worked out at 0.034 µM on RIPK1 and 0.058 µM in assay [1] (Homo sapiens, U-937, 22 h).

For the origin of these results see US20250214942A1, “INHIBITORS OF RECEPTOR INTERACTING PROTEIN KINASE I FOR THE TREATMENT OF DISEASE” (Board of Regents, The University of Texas System, priority 2019, published 2025).
